Measurements as given in US20260022094A1, “Compounds for the Treatment of Neurodegenerative Diseases” (Celgene Corporation, priority 2022, published 2026).

These compounds were tested against T1, S1P5 receptors (Homo sapiens, UniProt Q9H228) (assay: [35S]-GTPγS binding assay on CHO-S1P5 membranes (S1P5 agonism)). Details: membranes of CHO cells expressing recombinant S1P5; measure of S1P5 agonism.
T1 construct: expressed in transfected cells; host or cells: CHO cells (membranes)
Format: biochemical
Experimental: CHO cells expressing recombinant S1P5 receptors were cultured in 500 cm^2 culture trays and, once confluent, rinsed and detached with cell-lifting buffer (10 mM HEPES, 154 mM NaCl, 6.85 mM EDTA, pH 7.4). Cells were then pelleted by centrifugation, resuspended, and homogenized in membrane preparation buffer (10 mM HEPES and 10 mM EDTA, pH 7.4) using a Polytron PT 1200E homogenizer (Kinematica, Luzern, Switzerland). Cellular proteins were pelleted by centrifugation at 48,000×g at 4° C. for 30 minutes. The resulting supernatant was discarded, and the pellet was re-suspended again in membrane preparation buffer, homogenized for a second time, and then centrifuged again as described above. The final cellular protein pellet was suspended in ice cold resuspension buffer (10 mM HEPES and 0.1 mM EDTA, pH 7.4), divided into aliquots, and stored at −80° C. until use.
Functional binding assays for [^35S]-GTPγS were performed in 96-well non-binding surface plates with a final volume of 200 μL. The test compounds were serially diluted in DMSO and added to assay plates using a Tecan D300E digital printer with a total volume of 0.4 μL. The control sphingosine-1-phosphate (SIP) was prepared separately by preparing a 400 µM stock solution from a 100 nmol pellet of S1P in 10 mM Na2CO3 with 2% β-cyclodextrin. The serial dilution of S1P was done using complete assay buffer (20 mM HEPES, 10 mM MgCl2, 100 mM NaCl, 1 mM EDTA, 0.1% fatty acid free bovine serum albumin (BSA), and 30 μg/mL saponin, pH 7.4) and transferred to wells already containing 0.4 μL DMSO. All the wells were then loaded to a total volume of 40 μL of complete assay buffer, except the non-specific binding (NSB) wells. For NSB wells, 40 μL/well of 50 μM GTPγS (Sigma Aldrich, cat #G8634, St. Louis, MO) was added to wells containing 0.4 μL of DMSO. The assay was started by the addition of 120 μL/well of CHO-SIP receptor membrane solution containing 40 μg/mL of membrane protein, 16.67 μM guanosine diphosphate (GDP; Sigma Aldrich, cat #G7127, St. Louis, MO), and 2.5 mg/mL of WGA PVT SPA beads in complete buffer. Assay plates were then sealed and incubated at room temperature with gentle agitation for 30 minutes. Next, 40 μL/well of 1 nM of [^35S]-GTPγS (PerkinElmer, cat #NEG030X^250UC, Waltham, MA) in basic assay buffer (20 mM HEPES, 10 mM MgCl2, 100 mM NaCl, and 1 mM EDTA, pH7.4) was added to the assay plates to yield a final concentration of […] and the plates were further incubated for 40 minutes at room temperature with gentle agitation. The assay was terminated by centrifugation of the plates at 1000 rpm for 3 minutes using an Eppendorf 5810R centrifuge (Eppendorf, Hamburg, Germany) and G protein bound radioactivity was quantitated using a MicroBeta2 microplate scintillation counter (PerkinElmer, Waltham, MA). As G protein bound radioactivity directly correlates to receptor activation and coupling to the G protein, this assay is a measure of S1P5 agonism.

T1 sequence (Q9H228 whole entry): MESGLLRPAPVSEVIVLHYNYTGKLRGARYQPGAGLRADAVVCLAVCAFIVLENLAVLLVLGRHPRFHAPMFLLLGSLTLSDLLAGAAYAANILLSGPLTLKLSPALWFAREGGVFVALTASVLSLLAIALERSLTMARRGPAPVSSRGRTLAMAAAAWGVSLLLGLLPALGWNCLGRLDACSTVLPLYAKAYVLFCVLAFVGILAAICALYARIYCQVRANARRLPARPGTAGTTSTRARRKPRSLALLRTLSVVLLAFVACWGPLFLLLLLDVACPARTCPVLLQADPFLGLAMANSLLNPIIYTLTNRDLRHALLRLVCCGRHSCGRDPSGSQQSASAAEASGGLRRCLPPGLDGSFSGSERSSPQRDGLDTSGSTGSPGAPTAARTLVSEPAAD

`CC1(O)CCN(Cc2ccc(C3CN(c4c(Cl)cccc4Cl)C3)cc2)CC1` [Compound 30, 1-(4-(1-(2,6-dichlorophenyl)azetidin-3-yl)benzyl)-4-methylpiperidin-4-ol] and `CC1(O)CCN(C2CCc3cc(C4CN(c5c(Cl)cccc5Cl)C4)ccc32)CC1` (stereo not drawn) [Compound 8, 1-(5-(1-(2,6-dichlorophenyl)azetidin-3-yl)-2,3-dihydro-1H-inden-1-yl)-4-methyl-piperidin-4-ol] fall in the same range of EC50: 1000 to 10000 nM for the first, 1000 to 10000 nM for the second.

`CC1(O)CN(Cc2ccc(N3CC(c4c(Cl)cccc4Cl)C3)cn2)C1` [Compound 66, 1-((5-(3-(2,6-dichlorophenyl)azetidin-1-yl)pyridin-2-yl)methyl)-3-methylazetidin-3-ol] and `CC1(O)CN(Cc2ccc(C3CN(c4c(Cl)cccc4Cl)C3)cn2)C1` [Compound 59, 1-((5-(1-(2,6-dichlorophenyl)azetidin-3-yl)pyridin-2-yl)methyl)-3-methylazetidin-3-ol] fall in the same range of EC50: 100 to 1000 nM for the first, 100 to 1000 nM for the second.

`Cc1c(CCc2c(Cl)cccc2Cl)ccc2c1CCC2N1CC(C)(O)C1` (single isomer, unassigned) [Compound 18b, 1-[5-[2-(2,6-dichlorophenyl)ethyl]-4-methyl-indan-1-yl]-3-methyl-azetidin-3-ol] and `Cc1c(OCc2c(Cl)cccc2Cl)ccc2c1CCC2N1CC(C)(O)C1` (single isomer, unassigned) [Compound 19b, 1-[5-[(2,6-dichlorophenyl)methoxy]-4-methyl-indan-1-yl]-3-methyl-azetidin-3-ol] fall in the same range of EC50: 1 to 10 nM for the first, 1 to 10 nM for the second.

First: Cc1cc2c(cc1-c1ccc(C3CC3)c(Cl)c1)CCC2N1CC(C)(O)C1 (single isomer, unassigned) [Compound 21a, 1-[5-(3-chloro-4-cyclopropyl-phenyl)-6-methyl-indan-1-yl]-3-methyl-azetidin-3-ol]
Second: Cc1c(-c2ccc(C3CC3)c(Cl)c2)cc2c(c1C)C(N1CC(C)(O)C1)CC2 (single isomer, unassigned) [Compound 27a, 1-(5-(3-chloro-4-cyclopropylphenyl)-6,7-dimethyl-2,3-dihydro-1H-inden-1-yl)-3-methylazetidin-3-ol]
The EC50 of the first is higher: 10 to 100 nM for the first, 1 to 10 nM for the second.

Compared with `Cc1cc(C2CN(c3ccc(C4CC4)c(Cl)c3)C2)cc(C)c1CN1CC(C)(O)C1` [Compound 46, 1-(4-(1-(3-chloro-4-cyclopropylphenyl)azetidin-3-yl)-2,6-dimethylbenzyl)-3-methylazetidin-3-ol], `Cc1cc(C2CN(c3c(Cl)cccc3Cl)C2)cc(C2CC2)c1CN1CC(C)(O)C1` [Compound 54, 1-(2-cyclopropyl-4-(1-(2,6-dichlorophenyl)azetidin-3-yl)-6-methylbenzyl)-3-methylazetidin-3-ol] is lower in EC50: 100 to 1000 nM for the first, 10 to 100 nM for the second. The second is the more potent here.

`Cc1cc(C#Cc2cccc(F)c2)cc2c1C(N1CC(C)(O)C1)CC2` (single isomer, unassigned) [Compound 13a, 1-[5-[2-(3-fluorophenyl)ethynyl]-7-methyl-indan-1-yl]-3-methyl-azetidin-3-ol] and `Cc1cc2c(cc1C#Cc1cccc(F)c1)CCC2N1CC(C)(O)C1` (single isomer, unassigned) [Compound 22a, 1-[5-[2-(3-fluorophenyl)ethynyl]-6-methyl-indan-1-yl]-3-methyl-azetidin-3-ol] fall in the same range of EC50: 10 to 100 nM for the first, 10 to 100 nM for the second.

First: Cc1cc(N2CC(c3c(Cl)cccc3Cl)C2)cc(C)c1CN1CC(C)(O)C1 [Compound 37, 1-(4-(3-(2,6-dichlorophenyl)azetidin-1-yl)-2,6-dimethylbenzyl)-3-methylazetidin-3-ol]
Second: Cc1cc(N2CC(c3c(Cl)cccc3Cl)C2)cc(C)c1CN1CCC(C)(O)CC1 [Compound 36, 1-(4-(3-(2,6-dichlorophenyl)azetidin-1-yl)-2,6-dimethylbenzyl)-4-methylpiperidin-4-ol]
The EC50 of the first is lower: 1 to 10 nM for the first, 100 to 1000 nM for the second. The first is the more potent here.

First: Cc1cc(C#Cc2cccc(F)c2)cc2c1C(N1CC(C)(O)C1)CC2 (single isomer, unassigned) [Compound 13b, 1-[5-[2-(3-fluorophenyl)ethynyl]-7-methyl-indan-1-yl]-3-methyl-azetidin-3-ol]
Second: CC1(O)CN(C2CCc3cc(C#Cc4cccc(F)c4)ccc32)C1 (single isomer, unassigned) [Compound 2a, 1-[5-[2-(3-fluorophenyl)ethynyl]indan-1-yl]-3-methyl-azetidin-3-ol]
The EC50 of the first is lower: 10 to 100 nM for the first, 100 to 1000 nM for the second. The first is the more potent here.

First: Cc1cc(-c2ccc(C3CC3)c(Cl)c2)cc2c1C(N1CCC(C)(O)CC1)CC2 (stereo not drawn) [Compound 11, 1-(5-(3-chloro-4-cyclopropylphenyl)-7-methyl-2,3-dihydro-1H-inden-1-yl)-4-methylpiperidin-4-ol]
Second: CC1(O)CN(C2CCc3cc(-c4ccc(C5CC5)c(F)c4)ccc32)C1 (single isomer, unassigned) [Compound 4b, 1-(5-(4-cyclopropyl-3-fluorophenyl)-2,3-dihydro-1H-inden-1-yl)-3-methyl azetidin-3-ol]
The EC50 of the first is higher: 1000 to 10000 nM for the first, 100 to 1000 nM for the second.

`Cc1cc(C2CN(c3c(Cl)cccc3Cl)C2)c(C)cc1CN1CC(C)(O)C1` [Compound 56, 1-(4-(1-(2,6-dichlorophenyl)azetidin-3-yl)-2,5-dimethylbenzyl)-3-methylazetidin-3-ol] and `Cc1cc(C2CN(c3c(Cl)cccc3Cl)C2)cc(C)c1CN1CC(C)(O)C1` [Compound 35, 1-[[4-[1-(2,6-dichlorophenyl)azetidin-3-yl]-2,6-dimethyl-phenyl]methyl]-3-methyl-azetidin-3-ol] fall in the same range of EC50: 10 to 100 nM for the first, 10 to 100 nM for the second.

`Cc1cc2c(cc1OCc1c(Cl)cccc1Cl)CCC2N1CC(C)(O)C1` (single isomer, unassigned) [Compound 24a, 1-[5-[(2,6-dichlorophenyl)methoxy]-6-methyl-indan-1-yl]-3-methyl-azetidin-3-ol] and `Cc1cc(CCc2c(Cl)cccc2Cl)cc2c1C(N1CC(C)(O)C1)CC2` (single isomer, unassigned) [Compound 14b, 1-[5-[2-(2,6-dichlorophenyl)ethyl]-7-methyl-indan-1-yl]-3-methyl-azetidin-3-ol] fall in the same range of EC50: 1 to 10 nM for the first, 1 to 10 nM for the second.

`CC1(O)CN(Cc2ccc(N3CC(c4c(Cl)cccc4Cl)C3)cc2F)C1` [Compound 65, 1-(4-(3-(2,6-dichlorophenyl)azetidin-1-yl)-2-fluorobenzyl)-3-methylazetidin-3-ol] and `CC1(O)CN(Cc2ccc(N3CC(c4c(Cl)cccc4Cl)C3)c(F)c2)C1` [Compound 67, 1-(4-(3-(2,6-dichlorophenyl)azetidin-1-yl)-3-fluorobenzyl)-3-methylazetidin-3-ol] fall in the same range of EC50: 10 to 100 nM for the first, 10 to 100 nM for the second.

`Cc1cc(C2CN(c3c(Cl)cccc3Cl)C2)cc(Cl)c1CN1CC(C)(O)C1` [Compound 49, 1-(2-chloro-4-(1-(2,6-dichlorophenyl)azetidin-3-yl)-6-methylbenzyl)-3-methylazetidin-3-ol] and `Cc1cc(CN2CC(C)(O)C2)cc(C)c1C1CN(c2c(Cl)cccc2Cl)C1` [Compound 57, 1-(4-(1-(2,6-dichlorophenyl)azetidin-3-yl)-3,5-dimethylbenzyl)-3-methylazetidin-3-ol] fall in the same range of EC50: 10 to 100 nM for the first, 10 to 100 nM for the second.

Compared with `Cc1cc(C2CN(c3c(F)cccc3F)C2)cc(C)c1CN1CC(C)(O)C1` [Compound 42, 1-(4-(1-(2,6-difluorophenyl)azetidin-3-yl)-2,6-dimethylbenzyl)-3-methylazetidin-3-ol], `CC1(O)CN(Cc2ccc(C3CN(c4c(Cl)cccc4Cl)C3)c(F)c2)C1` [Compound 60, 1-(4-(1-(2,6-dichlorophenyl)azetidin-3-yl)-3-fluorobenzyl)-3-methylazetidin-3-ol] is higher in EC50: 10 to 100 nM for the first, 100 to 1000 nM for the second. The first is the more potent here.

Compared with `Cc1c(OCc2c(Cl)cccc2Cl)ccc2c1CCC2NCC(C)(C)O` (single isomer, unassigned) [Compound 20b, 1-((5-((2,6-dichlorobenzyl)oxy)-4-methyl-2,3-dihydro-1H-inden-1-yl)amino)-2-methylpropan-2-ol], `Cc1c(CCc2c(Cl)cccc2Cl)ccc2c1CCC2N1CC(C)(O)C1` (single isomer, unassigned) [Compound 18a, 1-[5-[2-(2,6-dichlorophenyl)ethyl]-4-methyl-indan-1-yl]-3-methyl-azetidin-3-ol] is lower in EC50: 100 to 1000 nM for the first, 1 to 10 nM for the second.
